The structures appear in SMILES notation.

In this test the target is T1, full-length ATR (Homo sapiens, UniProt Q13535).
T1 construct: in the presence of 5 nM full-length ATR
T1 sequence (Q13535 whole entry): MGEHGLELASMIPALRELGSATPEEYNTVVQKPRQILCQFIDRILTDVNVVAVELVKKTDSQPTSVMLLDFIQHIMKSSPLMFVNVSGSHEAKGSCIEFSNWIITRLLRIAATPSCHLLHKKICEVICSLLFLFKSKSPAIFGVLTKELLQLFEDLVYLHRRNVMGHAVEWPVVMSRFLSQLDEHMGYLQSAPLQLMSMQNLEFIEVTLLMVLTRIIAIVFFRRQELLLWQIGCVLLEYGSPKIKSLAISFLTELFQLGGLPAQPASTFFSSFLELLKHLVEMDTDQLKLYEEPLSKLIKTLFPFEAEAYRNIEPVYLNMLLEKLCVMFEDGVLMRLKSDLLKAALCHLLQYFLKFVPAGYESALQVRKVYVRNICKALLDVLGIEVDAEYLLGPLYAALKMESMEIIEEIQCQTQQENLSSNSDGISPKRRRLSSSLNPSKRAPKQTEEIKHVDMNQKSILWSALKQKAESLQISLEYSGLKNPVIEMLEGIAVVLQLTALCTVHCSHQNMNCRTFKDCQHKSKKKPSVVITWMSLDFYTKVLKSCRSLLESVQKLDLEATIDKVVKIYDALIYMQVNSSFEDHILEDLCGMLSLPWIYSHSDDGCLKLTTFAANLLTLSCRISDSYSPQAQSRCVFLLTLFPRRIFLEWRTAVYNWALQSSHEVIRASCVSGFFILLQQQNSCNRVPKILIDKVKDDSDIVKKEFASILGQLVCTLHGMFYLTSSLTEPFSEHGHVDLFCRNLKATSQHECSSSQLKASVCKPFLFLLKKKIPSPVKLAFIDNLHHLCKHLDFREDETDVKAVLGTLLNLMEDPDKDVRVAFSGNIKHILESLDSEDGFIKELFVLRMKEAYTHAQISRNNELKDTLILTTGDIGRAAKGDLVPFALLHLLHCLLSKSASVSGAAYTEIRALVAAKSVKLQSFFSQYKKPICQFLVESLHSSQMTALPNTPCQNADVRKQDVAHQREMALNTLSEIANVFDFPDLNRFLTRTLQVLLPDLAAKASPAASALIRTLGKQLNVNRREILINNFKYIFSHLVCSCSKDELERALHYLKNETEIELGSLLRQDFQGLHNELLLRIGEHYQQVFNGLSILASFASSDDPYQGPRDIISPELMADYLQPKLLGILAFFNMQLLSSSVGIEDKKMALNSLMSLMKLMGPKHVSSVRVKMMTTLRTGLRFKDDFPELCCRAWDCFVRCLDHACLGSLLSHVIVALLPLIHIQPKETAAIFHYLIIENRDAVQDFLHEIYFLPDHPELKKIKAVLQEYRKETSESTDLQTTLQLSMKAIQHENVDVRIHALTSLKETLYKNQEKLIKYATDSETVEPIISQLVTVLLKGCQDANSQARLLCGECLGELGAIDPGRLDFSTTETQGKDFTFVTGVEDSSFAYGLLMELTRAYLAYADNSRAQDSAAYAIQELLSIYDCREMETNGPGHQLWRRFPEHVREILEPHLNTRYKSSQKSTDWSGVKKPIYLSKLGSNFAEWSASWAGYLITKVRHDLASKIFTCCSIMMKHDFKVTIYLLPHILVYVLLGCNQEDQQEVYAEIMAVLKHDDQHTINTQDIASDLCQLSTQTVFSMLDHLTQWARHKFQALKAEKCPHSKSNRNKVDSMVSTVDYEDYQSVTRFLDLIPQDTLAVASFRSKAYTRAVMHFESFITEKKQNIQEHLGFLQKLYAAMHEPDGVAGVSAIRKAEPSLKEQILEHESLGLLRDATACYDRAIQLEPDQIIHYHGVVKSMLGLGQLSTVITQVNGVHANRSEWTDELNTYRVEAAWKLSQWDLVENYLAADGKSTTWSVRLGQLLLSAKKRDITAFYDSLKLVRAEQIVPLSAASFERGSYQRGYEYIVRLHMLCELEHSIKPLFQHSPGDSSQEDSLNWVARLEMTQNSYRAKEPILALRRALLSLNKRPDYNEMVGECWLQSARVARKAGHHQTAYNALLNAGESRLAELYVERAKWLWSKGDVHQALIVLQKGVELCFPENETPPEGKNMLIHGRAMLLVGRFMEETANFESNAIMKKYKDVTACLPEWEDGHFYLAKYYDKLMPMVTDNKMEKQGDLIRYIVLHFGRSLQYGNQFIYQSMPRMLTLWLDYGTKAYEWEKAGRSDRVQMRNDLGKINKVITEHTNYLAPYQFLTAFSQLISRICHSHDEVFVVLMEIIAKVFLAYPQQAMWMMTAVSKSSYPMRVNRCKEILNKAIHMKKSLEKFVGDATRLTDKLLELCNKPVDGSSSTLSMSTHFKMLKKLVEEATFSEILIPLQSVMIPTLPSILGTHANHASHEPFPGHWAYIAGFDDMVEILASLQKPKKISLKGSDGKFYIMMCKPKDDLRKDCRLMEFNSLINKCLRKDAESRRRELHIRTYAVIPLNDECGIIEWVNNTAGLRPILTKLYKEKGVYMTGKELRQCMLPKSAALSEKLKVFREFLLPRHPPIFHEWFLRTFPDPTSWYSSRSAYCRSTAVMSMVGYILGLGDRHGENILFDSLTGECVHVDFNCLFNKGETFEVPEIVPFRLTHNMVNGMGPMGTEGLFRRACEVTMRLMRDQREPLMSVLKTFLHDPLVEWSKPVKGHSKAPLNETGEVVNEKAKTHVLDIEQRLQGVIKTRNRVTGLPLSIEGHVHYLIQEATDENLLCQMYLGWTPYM
The test can be described thus: ATR Inhibition Assay (radioactive-phosphate incorporation). The class given is biochemical. The note with it: Ki(app); 5 nM full-length ATR, 10 μM ATP, 800 μM target peptide, 25° C. The method, then:
Test compounds were screened for their ability to inhibit ATR kinase using a radioactive-phosphate incorporation assay. Assays were carried out in a mixture of 50 mM
Tris/HCl (pH 7.5), 10 mM MgCl2 and 1 mM DTT. Final substrate concentrations were 10 μM [γ-33P]ATP (3 mCi 33 P ATP/mmol ATP, Perkin Elmer) and 800 μM target peptide ([…]). Assays were carried out at 25° C. in the presence of 5 nM full-length ATR. An assay stock buffer solution was prepared containing all of the reagents listed above, with the exception of ATP and the test compound of interest. […] The plate was pre-incubated for 10 minutes at 25° C. and the reaction initiated by addition of 15 μL [γ-33P]ATP (final concentration 10 μM).
The reaction was stopped after […] by the addition of 30 μL 0.1M phosphoric acid containing 2 mM ATP. A multiscreen phosphocellulose filter 96-well plate (Millipore, Cat no. MAPHN0B50) was pretreated with 100 μL 0.2M phosphoric acid prior to the addition of 45 μL of the stopped assay mixture. The plate was washed with 5×200 μL 0.2M phosphoric acid.
After removing mean background values for all of the data points, Ki(app) data were calculated from non-linear regression analysis of the initial rate data using the Prism software package (GraphPad Prism version 3.0cx for Macintosh, GraphPad Software, San Diego Calif., USA).
On to `CN(C)S(=O)(=O)N[C@H]1CCN(c2cnc(N)c(-c3nc4ccccc4[nH]3)n2)C1` [Compound I-85, (S)-N-(1-(5-amino-6-(1H-benzo[d]imidazol-2-yl)pyrazin-2-yl)pyrrolidin-3-yl)propane-2-N,N-dimethylsulfamide], for which the Ki was 1000 to 10000 nM. Next, `COC(=O)N1CC=C(c2cnc(N)c(-c3nnc(-c4ccccc4)o3)n2)CC1` [Compound I-228, methyl 4-(5-amino-6-(5-phenyl-1,3,4-oxadiazol-2-yl)pyrazin-2-yl)-5,6-dihydropyridine-1(2H)-carboxylate]: under 100 nM. Turning to `CCS(=O)(=O)N1CCN(c2cnc(N)c(-c3nc4cccnc4[nH]3)n2)CC1` [Compound I-56, 5-(4-(ethylsulfonyl)piperazin-1-yl)-3-(3H-imidazo[4,5-b]pyridin-2-yl)pyrazin-2-amine], the Ki lay in the range of 100 to 1000 nM. For `CNCc1ccc(-c2nnc(-c3nc(C4CC4C(=O)N(C)CCOC)cnc3N)o2)cc1` (centres unmarked) [Compound I-377] the value was 1000 to 10000 nM. Next, `CNCc1ccc(-c2nnc(-c3nc(C4=CCC(C)CC4)cnc3N)o2)cc1` (centres unmarked) [Compound I-336, 3-(5-(4-((Methylamino)methyl)phenyl)-1,3,4-oxadiazol-2-yl)-5-(4-methylcyclohex-1-enyl)pyrazin-2-amine]: 100 to 1000 nM; `Nc1ncc(N2CCN(C(=O)c3c(F)cccc3F)CC2)nc1C(=O)Nc1ccccn1` [Compound I-149, 3-amino-6-(4-(2,6-difluorophenylcarbonyl)piperazin-1-yl)-N-(pyridin-2-yl)pyrazine-2-carboxamide]: 100 to 1000 nM. Next, `Nc1ncc(C2=CCN(C(=O)Cc3ccccc3)CC2)nc1-c1nnc(-c2ccccc2)o1` [Compound I-201, 1-(4-(5-amino-6-(5-phenyl-1,3,4-oxadiazol-2-yl)pyrazin-2-yl)-5,6-dihydropyridin-1(2H)-yl)-2-phenylethanone]: under 100 nM; `N#CCCN1CCN(c2cnc(N)c(-c3nnc(-c4ccccc4)o3)n2)CC1` [Compound I-298, 3-[4-[5-amino-6-(5-phenyl-1,3,4-oxadiazol-2-yl)pyrazin-2-yl]piperazin-1-yl]propanenitrile]: 1000 to 10000 nM; `CN(C)C1CCN(C(=O)N2CC=C(c3cnc(N)c(-c4nc5ccccc5[nH]4)n3)CC2)CC1` [Compound I-173, (4-(5-amino-6-(1H-benzo[d]imidazol-2-yl)pyrazin-2-yl)-5,6-dihydropyridin-1(2H)-yl)(4-(dimethylamino)piperidin-1-yl)methanone]: 100 to 1000 nM. As to `CCS(=O)(=O)N1CCN(c2cnc(N)c(-c3nnc(-c4cccc(N)c4)[nH]3)n2)CC1` [Compound I-57, 3-(5-(3-aminophenyl)-4H-1,2,4-triazol-3-yl)-5-(4-(ethylsulfonyl)piperazin-1-yl)pyrazin-2-amine], the Ki lay within 100 to 1000 nM. Next, `Nc1ncc(N2CCN(S(=O)(=O)c3cccs3)CC2)nc1-c1nnc(-c2ccccc2)o1` [Compound I-96, 3-(5-phenyl-1,3,4-oxadiazol-2-yl)-5-(4-(thiophen-2-ylsulfonyl)piperazin-1-yl)pyrazin-2-amine]: 100 to 1000 nM; `CC(C)C(=O)N1CC=C(c2cnc(N)c(-c3nc4ccccc4[nH]3)n2)CC1` [Compound I-293, 1-[4-[5-amino-6-(1H-benzimidazol-2-yl)pyrazin-2-yl]-3,6-dihydro-2H-pyridin-1-yl]-2-methyl-propan-1-one]: 100 to 1000 nM; `CCOC(=O)N1CCN(c2cnc(N)c(C(=O)Nc3ccccn3)n2)CC1` [Compound I-113, ethyl 4-(5-amino-6-(pyridin-2-ylcarbamoyl)pyrazin-2-yl)piperazine-1-carboxylate]: 1000 to 10000 nM. For `CN(C)S(=O)(=O)N1CCN(c2cnc(N)c(C(=O)Nc3ccccn3)n2)CC1` [Compound I-81, 3-amino-6-(4-(N,N-dimethylsulfamoyl)piperazin-1-yl)-N-(pyridin-2-yl)pyrazine-2-carboxamide] the value was 1000 to 10000 nM; for `Nc1ncc(C2=CCN(C(=O)CCC(=O)O)CC2)nc1-c1nc2ccccc2[nH]1` [Compound I-324, 4-(4-(5-Amino-6-(1H-benzo[d]imidazol-2-yl)pyrazin-2-yl)-5,6-dihydropyridin-1(2H)-yl)-4-oxobutanoic acid], 100 to 1000 nM; for `Nc1ncc(C2=CCN(C(=O)OCc3ccccc3)CC2)nc1-c1nc2ccccc2[nH]1` [Compound I-261, benzyl 4-(5-amino-6-(1H-benzo[d]imidazol-2-yl)pyrazin-2-yl)-5,6-dihydropyridine-1(2H)-carboxylate], 100 to 1000 nM. Regarding `COCC(=O)N1CC=C(c2cnc(N)c(-c3nc4ccccc4[nH]3)n2)CC1` [Compound I-138, 1-(4-(5-amino-6-(1H-benzo[d]imidazol-2-yl)pyrazin-2-yl)-5,6-dihydropyridin-1(2H)-yl)-2-methoxyethanone], the Ki is under 100 nM. In the case of `CNC(=O)[C@H]1CCN(c2cnc(N)c(-c3nc4ccc(C)cc4[nH]3)n2)C1` [Compound I-70, (S)-1-(5-amino-6-(6-methyl-1H-benzo[d]imidazol-2-yl)pyrazin-2-yl)-N-methylpyrrolidine-3-carboxamide], the Ki lay in the range of 1000 to 10000 nM. On to `CCNC(=O)[C@@H]1CCCN1c1cnc(N)c(-c2nnc(-c3ccc(CNC)cc3)o2)n1` [Compound I-348, (25)-1-[5-Amino-6-[5-[4-(methylaminomethyl)phenyl]-1,3,4-oxadiazol-2-yl]pyrazin-2-yl]-N-ethyl-pyrrolidine-2-carboxamide], for which the Ki fell in the range of 1000 to 10000 nM. For `CNCc1ccc(-c2nnc(-c3nc(N4CCC[C@@H]4C)cnc3N)o2)cc1` [Compound I-361, 3-[5-[4-(Methylaminomethyl)phenyl]-1,3,4-oxadiazol-2-yl]-5-[(2S)-2-methylpyrrolidin-1-yl]pyrazin-2-amine] the value was 100 to 1000 nM; for `Nc1ncc(N2CC[C@H](NC(=O)c3ccccn3)C2)nc1-c1nc2ccccc2[nH]1` [Compound I-193, (S)-N-(1-(5-amino-6-(1H-benzo[d]imidazol-2-yl)pyrazin-2-yl)pyrrolidin-3-yl)pyridine-2-carboxamide], 100 to 1000 nM.

In the case of `Nc1ncc(N2CCN(c3nccs3)CC2)nc1-c1nc2ccccc2[nH]1` [Compound I-277], the Ki was in the range of 100 to 1000 nM. Next, `Nc1ncc(C2=CCN(C(=O)N3CCCNCC3)CC2)nc1-c1nc2ccccc2[nH]1` [Compound I-279, (4-(5-amino-6-(1H-benzo[d]imidazol-2-yl)pyrazin-2-yl)-5,6-dihydropyridin-1(2H)-yl)(1,4-diazepan-1-yl)methanone]: 100 to 1000 nM; `CCNC(=O)C1[C@H]2CN(c3cnc(N)c(-c4nnc(-c5ccc(CNC)cc5)o4)n3)C[C@@H]12` (stereo partly drawn) [Compound I-350, (1R,5S)-3-[5-Amino-6-[5-[4-(methylaminomethyl)phenyl]-1,3,4-oxadiazol-2-yl]pyrazin-2-yl]-N-ethyl-3-azabicyclo[3.1.0]hexane-6-carboxamide]: 100 to 1000 nM. As for `Cc1ccc2nc(-c3nc(N4CCC5(CC4)OCCO5)cnc3N)[nH]c2c1` [Compound I-33, 3-(6-methyl-1H-benzo[d]imidazol-2-yl)-5-(1,4-dioxa-8-azaspiro[4.5]decan-8-yl)pyrazin-2-amine], the Ki lay in the range of 1000 to 10000 nM. Next, `Nc1ncc(C2=CCN(C(=O)c3c(F)cccc3F)CC2)nc1-c1nc2ccccc2[nH]1` [Compound I-215, (4-(5-amino-6-(1H-benzo[d]imidazol-2-yl)pyrazin-2-yl)-5,6-dihydropyridin-1(2H)-yl)(2,6-difluorophenyl)methanone]: under 100 nM; `Nc1ncc(N2CCN(C(=O)N3CCCCC3)CC2)nc1-c1nnc(-c2ccccc2)o1` [Compound I-231, (4-(5-amino-6-(5-phenyl-1,3,4-oxadiazol-2-yl)pyrazin-2-yl)piperazin-1-yl)(piperidin-1-yl)methanone]: 100 to 1000 nM. Consider `CCS(=O)(=O)N1CC=C(c2cnc(N)c(-c3noc(-c4ccccc4)n3)n2)CC1` [Compound I-307, 5-(1-ethylsulfonyl-3,6-dihydro-2H-pyridin-4-yl)-3-(5-phenyl-1,2,4-oxadiazol-3-yl)pyrazin-2-amine], for which the Ki was in the range of 100 to 1000 nM.

Turning to `Nc1ncc(N2Cc3ccccc3C2=O)nc1-c1nc2ccccc2[nH]1` [Compound I-304, 2-[5-amino-6-(1H-benzimidazol-2-yl)pyrazin-2-yl]isoindolin-1-one], the Ki is 100 to 1000 nM.

On to `COCCOCC(=O)N1CC=C(c2cnc(N)c(-c3nnc(-c4ccccc4)o3)n2)CC1` [Compound I-135, 1-(4-(5-amino-6-(5-phenyl-1,3,4-oxadiazol-2-yl)pyrazin-2-yl)-5,6-dihydropyridin-1(2H)-yl)-2-(2-methoxyethoxy)ethanone], for which the Ki is under 100 nM. For `Nc1ncc(N2CCN(S(=O)(=O)c3c(F)cccc3F)CC2)nc1-c1nnc(-c2ccccc2)o1` [Compound I-202, 5-(4-(2,6-difluorophenylsulfonyl)piperazin-1-yl)-3-(5-phenyl-1,3,4-oxadiazol-2-yl)pyrazin-2-amine] the value was 100 to 1000 nM; for `Nc1ncc(C2=CCN(S(=O)(=O)C3CC3)CC2)nc1-c1nnc(-c2ccccc2)o1` [Compound I-122, 5-(1-(cyclopropylsulfonyl)-1,2,3,6-tetrahydropyridin-4-yl)-3-(5-phenyl-1,3,4-oxadiazol-2-yl)pyrazin-2-amine], under 100 nM.

Values taken from US8410112B2, “Compounds useful as inhibitors of ATR kinase” (Vertex Pharmaceuticals Incorporated, priority 2008, dated 2013).
